Laboratory results taken from ChEMBL document CHEMBL4732190, “Identification of Potent and Long-Acting Single-Chain Peptide Mimetics of Human Relaxin-2 for Cardiovascular Diseases” (J Med Chem, 2021).
≈ marks a conversion by molar mass, not a printed value. *1 amine or outer side, *2 acyl side, *3 side chain or, on linkers, in order; H or OH if unused. Where a SMILES comes first, the peptide text is derived from it. [ ]: non-standard residue; d: D form. The star is where a group is joined. X5 = CCCCCCCCCCCCCCCCCCC(=O)[C@H](CCC(=O)O)NC(=O)[C@H](CCC(=O)O)NC(=O)[C@H](CCC(=O)O)NC(=O)[C@H](CCCCN)NC(=O)COCC(=O)NCCCOCCOCCOCCCNC(=O)COCC(=O)NCCCOCCOCCOCCCNC(=O)COCC(=O)NCCCOCCOCCOCCCN*; β2hAla(2S) = C[C@@H](CN[*:1])C(=O)[*:2]; X4 = CCCC[C@H](O[*:1])C(=O)[*:2]; hLys = NCCCCC[C@H](N)C(=O)O; Nle = CCCC[C@H](N)C(=O)O; Orn = NCCC[C@H](N)C(=O)O

How the values were obtained:
[1] = Stability in human plasma assessed as parent compound remaining level at 5 uM remaining after 4 hrs; assay type: ADME, cell-free; settings: read-out: Stabilty
[2] = target: T1, Relaxin receptor 1 (Homo sapiens, UniProt Q9HBX9); assay: Agonist activity at RXFP1 endogenously expressed in human OVCAR-5 cells assessed as increase in IBMX-induced cAMP accumulation pretreated with IBMX for 40 mins followed by compound addition and measured after 30 mins by HTRF assay; assay type: functional, cell-based
T1 sequence (Q9HBX9 whole entry): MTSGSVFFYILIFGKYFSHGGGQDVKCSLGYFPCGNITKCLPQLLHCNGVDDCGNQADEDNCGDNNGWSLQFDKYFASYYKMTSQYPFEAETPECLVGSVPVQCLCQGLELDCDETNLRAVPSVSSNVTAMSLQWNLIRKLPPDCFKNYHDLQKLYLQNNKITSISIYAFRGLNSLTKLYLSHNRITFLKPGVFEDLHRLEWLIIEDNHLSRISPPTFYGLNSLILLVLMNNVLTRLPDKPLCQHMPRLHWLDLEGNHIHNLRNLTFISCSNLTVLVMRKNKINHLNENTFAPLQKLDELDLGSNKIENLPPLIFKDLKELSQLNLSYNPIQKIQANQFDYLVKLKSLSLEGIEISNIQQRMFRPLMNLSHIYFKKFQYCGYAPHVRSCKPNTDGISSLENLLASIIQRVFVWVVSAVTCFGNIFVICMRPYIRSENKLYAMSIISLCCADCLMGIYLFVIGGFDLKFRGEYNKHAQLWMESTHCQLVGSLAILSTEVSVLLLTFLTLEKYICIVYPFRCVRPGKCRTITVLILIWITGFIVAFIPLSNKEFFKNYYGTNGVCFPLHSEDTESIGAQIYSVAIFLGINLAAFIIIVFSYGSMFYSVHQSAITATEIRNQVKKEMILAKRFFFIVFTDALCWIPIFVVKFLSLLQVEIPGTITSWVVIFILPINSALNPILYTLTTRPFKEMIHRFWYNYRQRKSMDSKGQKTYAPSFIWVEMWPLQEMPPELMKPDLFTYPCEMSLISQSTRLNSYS

[3] = target: T2, Relaxin receptor 1 (Homo sapiens) (UniProt Q9HBX9); assay: Agonist activity at RXFP1 endogenously expressed in human OVCAR-5 cells assessed as increase in IBMX-induced cAMP accumulation pretreated with IBMX for 40 mins followed by compound addition and measured after 30 mins by HTRF assay relative to relaxin; assay type: functional, cell-based; settings: filed as agonist
T2 sequence (whole entry): T1 sequence (Q9HBX9 whole entry)

[4] = Aqueous solubility of compound in acetate buffer at pH 4.5 measured after 24 hrs by UPLC analysis; assay type: physicochemical
[5] = Aqueous solubility of compound in phosphate buffer at pH 7.4 measured after 24 hrs by UPLC analysis; assay type: physicochemical
[6] = Stability in rat plasma assessed as parent compound remaining level at 5 uM remaining after 4 hrs; assay type: ADME, cell-free; settings: read-out: Stabilty
[7] = Half life in Sprague-Dawley rat at 1 mg/kg, iv measured upto 72 hrs by LC-HRMS analysis; assay type: ADME, organism-based; settings: in vivo
[8] = target: T1, Relaxin receptor 1; assay: Agonist activity at RXFP1 endogenously expressed in human OVCAR-5 cells assessed as increase in IBMX-induced cAMP accumulation pretreated with IBMX for 40 mins followed by compound addition and measured after 30 mins in presence of 2 % HSA by HTRF assay; assay type: functional, cell-based
[9] = target: T2, Relaxin receptor 1 (Homo sapiens); assay: Agonist activity at RXFP1 endogenously expressed in human OVCAR-5 cells assessed as increase in IBMX-induced cAMP accumulation pretreated with IBMX for 40 mins followed by compound addition and measured after 30 mins in presence of 2 % HSA by HTRF assay relative to control; assay type: functional, cell-based; settings: filed as agonist
[10] = target: T2, Relaxin receptor 1 (Homo sapiens); assay: Selectivity ratio of EC50 for agonist activity at RXFP1 endogenously expressed in human OVCAR-5 cells in presence of 2 % HSA to EC50 for agonist activity at RXFP1 endogenously expressed in human OVCAR-5 cells in absence of HSA; assay type: cell-based

Row | SMILES | remaining at 4 h, 5 µM [1] | EC50 [2] | Emax [3] | solubility at 24 h [4] | solubility at 24 h [5] | remaining at 4 h, 5 µM [6] | half-life [7] | EC50 [8] | Emax [9] | Ratio EC50 [10]
1 | CC[C@H](C)[C@H](NC(=O)[C@H](CCC(N)=O)NC(=O)[C@H](C)NC(=O)[C@H](CCCNC(=N)N)NC(=O)[C@@H](NC(=O)[C@H](CCCCN)NC(=O)[C@H](CCC(=O)O)NC(=O)[C@H](CCCNC(=N)N)NC(=O)CNC(=O)[C@H](CCC(=O)O)NC(=O)[C@H](CC(C)C)NC(=O)[C@H](CCCCN)NC(=O)[C@@H](NC(=O)[C@@H](NC(=O)[C@H](CCC(=O)O)NC(=O)[C@H](CCC(=O)O)NC(C)=O)C(C)C)[C@@H](C)CC)C(C)C)C(=O)NC[C@H](C)C(=O)NC[C@H](C)C(=O)N[C@@H](CCC(=O)O)C(=O)NCC(=O)N[C@@H](CCSC)C(=O)N[C@@H](CO)C(=O)N[C@H](C(=O)N[C@@H](Cc1c[nH]c2ccccc12)C(=O)N[C@@H](CO)C(=O)NC[C@H](C)C(=O)N[C@@H](CCCNC(=N)N)C(=O)N[C@@H](CCCCN)C(=O)N[C@@H](CCCCN)C(N)=O)[C@@H](C)O (Ac-EEVIKLEGREKVRAQI[β2hAla(2S)][β2hAla(2S)]EGMSTWS[β2hAla(2S)]RKK-NH2) | 80% | 17.8 nM | 99% | 2800 µg/mL (≈ 827 µM) | 2400 µg/mL (≈ 709 µM) | 60% |  |  |  | 
2 | CCCC[C@H](OC(=O)CNC(=O)[C@H](CCC(=O)O)NC(=O)[C@@H](C)CNC(=O)[C@@H](C)CNC(=O)[C@@H](NC(=O)[C@H](CCCCCNC(C)=O)NC(=O)[C@@H](C)CNC(=O)[C@@H](C)CNC(=O)[C@H](CCCCN)NC(=O)[C@H](C)NC(=O)[C@H](CCCNC(=N)N)NC(=O)[C@@H](NC(=O)[C@H](CCCCN)NC(=O)[C@H](CCC(=O)O)NC(=O)[C@H](CCCNC(=N)N)NC(=O)CNC(=O)[C@H](CCC(=O)O)NC(=O)[C@H](CC(C)C)NC(C)=O)C(C)C)[C@@H](C)CC)C(=O)N[C@@H](CO)C(=O)N[C@H](C(=O)N[C@@H](Cc1c[nH]c2ccccc12)C(=O)N[C@@H](CO)C(=O)NC[C@H](C)C(=O)N[C@@H](CCCNC(=N)N)C(=O)N[C@@H](CCCCN)C(=O)N[C@@H](CCCN)C(=O)N[C@@H](CCCCCNC(C)=O)C(N)=O)[C@@H](C)O (Ac-LEGREKVRAK[β2hAla(2S)][β2hAla(2S)][hLys](Ac)I[β2hAla(2S)][β2hAla(2S)]EG[X4]STWS[β2hAla(2S)]RK[Orn][hLys](Ac)-NH2) | 74% | 18 nM | 93% | 4000 µg/mL (≈ 1210 µM) | 4000 µg/mL (≈ 1210 µM) | 60% |  |  |  | 
3 | CC[C@H](C)[C@H](NC(=O)[C@H](CCC(N)=O)NC(=O)[C@H](C)NC(=O)[C@H](CCCNC(=N)N)NC(=O)[C@@H](NC(=O)[C@H](CC(C)C)NC(=O)[C@H](CCC(=O)O)NC(=O)[C@H](CCCNC(=N)N)NC(=O)CNC(=O)[C@H](CO)NC(=O)[C@H](CC(C)C)NC(=O)[C@H](CCCCN)NC(=O)[C@@H](NC(=O)[C@@H](NC(C)=O)C(C)C)[C@@H](C)CC)C(C)C)C(=O)NC[C@H](C)C(=O)N[C@H](C(=O)N[C@@H](CO)C(=O)NCC(=O)N[C@@H](CCSC)C(=O)N[C@@H](CO)C(=O)N[C@H](C(=O)N[C@@H](Cc1c[nH]c2ccccc12)C(=O)N[C@@H](CO)C(=O)N[C@@H](CCCCN)C(=O)N[C@@H](CCCNC(=N)N)C(=O)N[C@@H](CCCCN)C(=O)N[C@@H](CCCCN)C(N)=O)[C@@H](C)O)[C@@H](C)CC (HELM PEPTIDE1{[ac].V.I.K.L.S.G.R.E.L.V.R.A.Q.I.[C[C@@H](CN[*:1])C(=O)[*:2]].I.S.G.M.S.T.W.S.K.R.K.K.[am]}$$$$V2.0) | 54% | 202 nM | 90% | 5700 µg/mL (≈ 1840 µM) | 4600 µg/mL (≈ 1480 µM) | 37% |  |  |  | 

The remaining compounds from weak to strong by EC50 [2], led by results:

Row | remaining at 4 h, 5 µM [1] | EC50 [2] | Emax [3] | solubility at 24 h [4] | solubility at 24 h [5] | remaining at 4 h, 5 µM [6] | half-life [7] | EC50 [8] | Emax [9] | Ratio EC50 [10] | SMILES
4 | 58% | 17 nM | 99% | 5100 µg/mL (≈ 1600 µM) | 5300 µg/mL (≈ 1660 µM) | 37% |  |  |  |  | CC[C@H](C)[C@H](NC(=O)[C@H](CCC(N)=O)NC(=O)[C@H](C)NC(=O)[C@H](CCCNC(=N)N)NC(=O)[C@@H](NC(=O)[C@H](CCCCN)NC(=O)[C@H](CCC(=O)O)NC(=O)[C@H](CCCNC(=N)N)NC(=O)CNC(=O)[C@H](CCC(=O)O)NC(=O)[C@H](CC(C)C)NC(=O)[C@H](CCCCN)NC(=O)[C@@H](NC(=O)[C@@H](NC(C)=O)C(C)C)[C@@H](C)CC)C(C)C)C(=O)NC[C@H](C)C(=O)NC[C@H](C)C(=O)N[C@@H](CCC(=O)O)C(=O)NCC(=O)N[C@@H](CCSC)C(=O)N[C@@H](CO)C(=O)N[C@@H](CCCCN)C(=O)N[C@@H](Cc1c[nH]c2ccccc12)C(=O)N[C@@H](CO)C(=O)N[C@@H](CCCCN)C(=O)N[C@@H](CCCNC(=N)N)C(=O)N[C@@H](CCCCN)C(=O)N[C@@H](CCCCN)C(N)=O (HELM PEPTIDE1{[ac].V.I.K.L.E.G.R.E.K.V.R.A.Q.I.[C[C@@H](CN[*:1])C(=O)[*:2]].[C[C@@H](CN[*:1])C(=O)[*:2]].E.G.M.S.K.W.S.K.R.K.K.[am]}$$$$V2.0)
5 | 93% | 14 nM | 99% | 6100 µg/mL (≈ 2190 µM) | 5800 µg/mL (≈ 2080 µM) | 101% |  |  |  |  | CC[C@H](C)[C@H](NC(=O)[C@H](CCC(N)=O)NC(=O)[C@H](C)NC(=O)[C@H](CCCNC(=N)N)NC(=O)[C@@H](NC(=O)[C@H](CCCCN)NC(=O)[C@H](CCC(=O)O)NC(=O)[C@H](CCCNC(=N)N)NC(=O)CNC(=O)[C@H](CCC(=O)O)NC(=O)[C@H](CC(C)C)NC(C)=O)C(C)C)C(=O)NC[C@H](C)C(=O)NC[C@H](C)C(=O)N[C@@H](CCC(=O)O)C(=O)NCC(=O)N[C@@H](CCSC)C(=O)N[C@@H](CO)C(=O)N[C@H](C(=O)N[C@@H](Cc1c[nH]c2ccccc12)C(=O)N[C@@H](CO)C(=O)NC[C@H](C)C(=O)N[C@@H](CCCNC(=N)N)C(=O)N[C@@H](CCCCN)C(=O)N[C@@H](CCCCN)C(N)=O)[C@@H](C)O (Ac-LEGREKVRAQI[β2hAla(2S)][β2hAla(2S)]EGMSTWS[β2hAla(2S)]RKK-NH2)
6 |  | 0.4 nM | 88% |  |  |  | 3.96 h | 24.5 nM | 85% | 61 | CCCCCCCCCCCCCCCCCCC(=O)[C@H](CCC(=O)O)NC(=O)[C@H](CCC(=O)O)NC(=O)[C@H](CCC(=O)O)NC(=O)[C@H](CCCCN)NC(=O)COCC(=O)NCCCOCCOCCOCCCNC(=O)COCC(=O)NCCCOCCOCCOCCCNC(=O)COCC(=O)NCCCOCCOCCOCCCNC(=O)[C@H](CCCCCNC(C)=O)NC(=O)[C@H](CCCCN)NC(=O)[C@H](CCCCN)NC(=O)[C@H](CCCNC(=N)N)NC(=O)[C@@H](C)CNC(=O)[C@H](CO)NC(=O)[C@H](Cc1c[nH]c2ccccc12)NC(=O)[C@@H](NC(=O)[C@H](CO)NC(=O)[C@H](CCCCCNC(C)=O)NC(=O)[C@H](CCCCN)NC(=O)[C@H](CCCC)NC(=O)[C@H](CCSC)NC(=O)CNC(=O)[C@H](CCC(=O)O)NC(=O)[C@@H](C)CNC(=O)[C@@H](C)CNC(=O)[C@@H](NC(=O)[C@H](CCCCCNC(C)=O)NC(=O)[C@H](CCCCN)NC(=O)[C@H](C)NC(=O)[C@H](CCCNC(=N)N)NC(=O)[C@@H](NC(=O)[C@H](CCCCN)NC(=O)[C@H](CCC(=O)O)NC(=O)[C@H](CCCNC(=N)N)NC(=O)[C@H](CCC(=O)O)NC(=O)CNC(=O)[C@H](CCC(=O)O)NC(=O)[C@H](CC(C)C)NC(C)=O)C(C)C)[C@@H](C)CC)[C@@H](C)O (Ac-LEGEREKVRAK[hLys](Ac)I[β2hAla(2S)][β2hAla(2S)]EGM[Nle]K[hLys](Ac)STWS[β2hAla(2S)]RKK[hLys](Ac)-X5)
